{"source": "patent US20050171203A1", "about": "“Pregabalin composition” (Pfizer Inc., priority 2003, published 2005)", "key": {"[1]": {"test": "observations on preserved pregabalin compositions (Remarks of Table 1: pH, particles, color, mold)", "type": "physicochemical", "details": "sorbic acid used with pregabalin", "description": "Other common preservatives, such as ethanol, are unsuitable for use in pediatric formulations.\nIn TABLE 1, the annotations “Meets Ph. Eur.” and “Fails Ph. Eur.” refer to whether the test results meet or fail the microbial limit test as defined in the current edition of European Pharmacopoeia (5th ed., 2004): 1000 bacteria per g (max); 100 yeasts and molds per g (max); and free of E. coli."}, "[2]": {"details": "storage at 5° C."}, "[3]": {"system": "bacteria; yeasts and molds; E. coli", "test": "antimicrobial efficacy testing (microbial limit test, European Pharmacopoeia 5th ed.)", "details": "glycerol as preservative"}}, "data": [{"smiles": "C/C=C/C=C/C(=O)O", "note": "[sorbic acid]", "values": [{"measurement": "appearance of the solution", "setting": "[1]", "result": "discoloration of the solution"}, {"measurement": "shift in pH", "setting": "[1]", "result": 5.0}]}, {"smiles": "OC[C@@H](O)[C@H](O)[C@@H](O)CO", "note": "[xylitol]", "values": [{"measurement": "behaviour in solution under storage", "setting": "[2]", "result": "precipitated out of solution"}]}, {"smiles": "O=C1NS(=O)(=O)c2ccccc21.[Na]", "note": "[sodium saccharin]", "values": [{"measurement": "behaviour in solution under storage", "setting": "[2]", "result": "remained in solution"}]}, {"smiles": "OCC(O)CO", "note": "[glycerol]", "values": [{"measurement": "behaviour in solution under storage", "setting": "[2]", "result": "precipitated out of solution"}, {"measurement": "compliance with requirements of European Pharmacopoeia (5th ed., 2004)", "setting": "[3]", "result": "does not comply"}]}]}
